Assay results reported in publication PMC12809495, “Potential 14-3-3 binding sites in sirtuins reveal extended phosphosite-recognition modes” (Acta Crystallographica Section F: Structural Biology …, 2026).
Where a SMILES comes first, the peptide text is derived from it. [ ]: non-standard residue; d: D form. pS = N[C@@H](COP(=O)(O)O)C(=O)O

Experiments:
14-3-3σ-ΔC = molecular target: T1, 14-3-3σ-ΔC (Homo sapiens, UniProt P31947); experiment: Isothermal titration calorimetry (ITC); type: binding; details: Fig. 3c; nanoITC, 150 µM 14-3-3σ-ΔC in cell, fourfold-concentrated peptide, 2 µl injections, 25°C, one-site fit; duplicate, error between fits; read-out: apparent Kd, ITC
T1 construct: His6; made in house; host or cells: Escherichia coli BL21 Rosetta (DE3)
T1 sequence (P31947 1-231 limits assumed): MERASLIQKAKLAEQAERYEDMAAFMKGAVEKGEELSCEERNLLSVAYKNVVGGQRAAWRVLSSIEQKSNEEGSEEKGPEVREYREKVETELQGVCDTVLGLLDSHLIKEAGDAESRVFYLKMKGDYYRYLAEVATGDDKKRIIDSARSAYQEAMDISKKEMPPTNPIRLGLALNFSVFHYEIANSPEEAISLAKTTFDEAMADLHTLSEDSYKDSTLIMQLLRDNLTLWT
Method: Peptide ligands were freshly prepared in the exact same buffer as was used for the gel-filtration run. Samples were degassed and temperature-equilibrated using a degassing station (TA Instruments). A volume of 250 µl of 14-3-3σ-ΔC protein sample at a concentration of 150 µM was transferred into the sample cell of a nanoITC (TA Instruments) and 50 µl of a fourfold-concentrated phosphorylated peptide was loaded into the injection needle. Multiple injection measurements were carried out at 25°C with a 300 rev min^−1 stirring rate and 300 s spacing between each 2 µl injection. The heat quantity post-injection was determined by integration of the measured peaks. The Sirt1^pS670 peptide behaved best and was measured in duplicate. Subtraction of heat of dilution measurements, peak integration and one-site binding fits were performed with NanoAnalyze (TA Instruments). The reported errors are the errors between fits of the measured duplicates.
Figure 3 Affinity measurements of Sirt1^pS670 and different Sirt3 peptides for 14-3-3σ-ΔC protein using MST and ITC experiments. […] (b) MST experiments of titrations of 14-3-3σ-ΔC with Sirt3^pS105 (squares) or Sirt3^pS103 (two independent runs, filled triangles and triangles) endecamer peptides and, for comparison, with nonphosphoylated Sirt3^S103 peptide (circles).

14-3-3 isoform gamma = molecular target: T2, 14-3-3 isoform gamma (Homo sapiens, UniProt P61981); experiment: Label-free microscale thermophoresis (MST) binding, 14-3-3 gamma; details: 0.6 µM 14-3-3 protein, 25 mM MES pH 6.5, 5 mM MgCl2, 5 mM CaCl2, 25°C, Kd from duplicate measurements, aggr. = no successful experiment
T2 construct: His6; made in house; host or cells: Escherichia coli BL21 Rosetta (DE3)
T2 sequence (P61981 1-247): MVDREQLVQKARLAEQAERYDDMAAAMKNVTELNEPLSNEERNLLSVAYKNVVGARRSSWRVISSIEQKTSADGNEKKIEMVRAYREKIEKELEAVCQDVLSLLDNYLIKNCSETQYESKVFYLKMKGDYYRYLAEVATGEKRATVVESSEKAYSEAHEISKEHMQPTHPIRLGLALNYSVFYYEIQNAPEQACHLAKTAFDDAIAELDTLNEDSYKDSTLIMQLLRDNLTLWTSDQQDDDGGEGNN
Method: The binding of phosphorylated sirtuin peptides (Fig. 1 ▸) was analyzed using the change in the intrinsic fluorescence signal of the 14-3-3 proteins measured with label-free microscale thermophoresis using a Nanotemper Monolith NT.LabelFree or NT.115. A typical binding experiment using 0.6 µM 14-3-3 protein was performed in a modified MST buffer consisting of 25 mM MES pH 6.5, 5 mM MgCl2, 5 mM CaCl2. The measurements were performed at 25°C using a LED power of 10–40%. All measurements were performed at least in duplicate, and the results shown are representative measurements individually fitted using GraFit 7 (Erathicus Software, Horley, United Kingdom).
Figure 1 Classification and analysis of sirtuin PSSM results for potential 14-3-3 phosphoserine binding sites. Peptides with a gray background were not analyzed experimentally. Score is the overall PSSM score for the phosphorylation site; rank is the order within the 17 proposed sirtuin binding sites. Conserved residues in the 14-3-3 motifs are marked in green. Residues with restricted (proline) or very flexible (glycine) protein backbone or with a very large side chain (tryptophan) are marked in red. Amino acids with the same or similar hydrophobicity/size are shown in magenta. Kd values from duplicate measurements are colored green for Kd < 100 µM. Fields marked in red indicate no binding or no successful experiment. […]

CC(C)C[C@H](NC(=O)[C@@H](N)C(C)C)C(=O)N[C@@H](CO)C(=O)N[C@@H](CO)C(=O)N[C@@H](CO)C(=O)N[C@@H](COP(=O)(O)O)C(=O)N[C@@H](CS)C(=O)NCC(=O)N[C@@H](CO)C(=O)N[C@@H](CC(N)=O)C(=O)N[C@@H](CO)C(=O)O [Sirt1^pS670] (H-VLSSS[pS]CGSNS-OH)
Kd (14-3-3σ-ΔC): 5 ± 4.2 µM | Affinity estimates by MicroScale Thermophoresis, 14-3-3 isoform gamma (Kd) (14-3-3 isoform gamma): aggr.
